What is called ED50 is the dose that gives a 50% effect, or the effect in half of the subjects. As usually defined, the fraction unbound is the share of the substance not bound to proteins or other matrix. As usually defined, the IC50 is the point on the concentration scale where inhibition reaches its midpoint. One may read the MTD as the highest dose tested that stayed within the study's limit of toxicity.

The structures appear in SMILES notation. Bridge positions count the residues as written; N and C are the ends. Square brackets hold non-standard residues; d marks the D form. Peptide text beside a SMILES is read from it. * marks the point of attachment. Heptanoyl(6-Me) = CC(C)CCCCC(=O)*; Octanoyl(6-Me) = CCC(C)CCCCC(=O)*; X1 = CC[C@H](C)CCCCC(=O)*; Dab = NCC[C@H](N)C(=O)O

One series concerns Escherichia coli. Briefly: Antibacterial activity against Escherichia coli ATCC BAA-2523 infected in ICR mouse model administered intravenously with compound at 1 and 6 hrs post-infection and measured after 7 days. It counts as functional. To be noted: ATCC BAA-2523, 168 h, route iv, time 7 day.
In the next series the test system is Klebsiella pneumoniae. In words: Antibacterial activity against carbapenem-resistant Klebsiella pneumoniae ATCC BAA-1705 infected in ICR mouse model administered intravenously with compound at 1 and 6 hrs post-infection and measured after 7 days. Particulars: ATCC BAA-1705, 168 h, route iv, time 7 day. It counts as functional.
The test system of a further series is Acinetobacter baumannii. Briefly: Antibacterial activity against carbapenem-resistant Acinetobacter baumannii NCTC13304 infected in ICR mouse model administered intravenously with compound at 1 and 6 hrs post-infection and measured after 7 days. It counts as functional. Particulars: NCTC13304, 168 h, route iv, time 7 day.
Series [1] in a line: Protein binding in human plasma assessed as unbound fraction at 0.2 uM incubated for 6 hrs by LC-MS/MS analysis. The series is classed as ADME, cell-free.
Series [2] in a line: Renal cytotoxicity against HK-2 cells incubated for 72 hrs by CCK8 assay. The series is classed as toxicity, cell-based. To be noted: human. In general terms: Tetrazolium dyes change colour on reduction, which living cells bring about.
The nature of series [3]: Acute toxicity in iv dosed Swiss mouse assessed as maximum tolerated dose measured after 24 hrs. It counts as organism-based. Particulars: in vivo.
A short description of series [4]: Nephrotoxicity against Sprague-Dawley rat assessed as increase in BUN level at 4 mg/kg, iv administered for 7 days by fully automated biochemistry analyzer XR200PLUS. It counts as toxicity, organism-based. To be noted: in vivo, 168 h, time 7 day.
A short description of series [5]: Nephrotoxicity against Sprague-Dawley rat assessed as increase in CRE level at 4 mg/kg, iv administered for 7 days by fully automated biochemistry analyzer XR200PLUS. The series is classed as toxicity, organism-based. Particulars: in vivo, 168 h, time 7 day.

With `CCC(C)CCCCC(=O)N[C@@H](CCN)C(=O)N[C@H](C(=O)N[C@@H](CCN)C(=O)N[C@H]1CCNC(=O)[C@H]([C@@H](C)O)NC(=O)[C@H](CCN)NC(=O)[C@H](CCN)NC(=O)[C@H](CC(C)C)NC(=O)[C@@H](CC(C)C)NC(=O)[C@H](CCN)NC1=O)[C@@H](C)O` (stereo partly drawn) ({Octanoyl(6-Me)}-[Dab]T[Dab][Dab][Dab][dL]L[Dab][Dab]T; lactam 4-C), the ED50 stood at 0.47 mg/kg in the series with Escherichia coli, 0.39 mg/kg in the series on Klebsiella pneumoniae and 0.98 mg/kg in the series on Acinetobacter baumannii.

As for `CC(C)CCCCC(=O)N[C@@H](CCN)C(=O)N[C@H](C(=O)N[C@@H](CCN)C(=O)N[C@H]1CCNC(=O)[C@H]([C@@H](C)O)NC(=O)[C@H](CCN)NC(=O)[C@H](CCN)NC(=O)[C@H](CC(C)C)NC(=O)[C@@H](Cc2ccccc2)NC(=O)[C@H](CCN)NC1=O)[C@@H](C)O` ({Heptanoyl(6-Me)}-[Dab]T[Dab][Dab][Dab][dF]L[Dab][Dab]T; lactam 4-C), in series [1], the fraction unbound at 6 h, 0.2 µM came to 0.099.

Turning to `CC(C)CCCCC(=O)N[C@@H](CCN)C(=O)N[C@H](C(=O)N[C@@H](CCN)C(=O)N[C@H]1CCNC(=O)[C@H]([C@@H](C)O)NC(=O)[C@H](CCN)NC(=O)[C@H](CCN)NC(=O)[C@H](CC(C)C)NC(=O)[C@@H](Cc2ccccc2)NC(=O)[C@H](CCN)NC1=O)[C@@H](C)O.CC[C@H](C)CCCCC(=O)N[C@@H](CCN)C(=O)N[C@H](C(=O)N[C@@H](CCN)C(=O)N[C@H]1CCNC(=O)[C@H]([C@@H](C)O)NC(=O)[C@H](CCN)NC(=O)[C@H](CCN)NC(=O)[C@H](CC(C)C)NC(=O)[C@@H](Cc2ccccc2)NC(=O)[C@H](CCN)NC1=O)[C@@H](C)O` (X1-[Dab]T[Dab][Dab][Dab][dF]L[Dab][Dab]T; lactam 4-C), the IC50 at 72 h in series [2] turned out to be 66.3 µg/mL. The MTD at 24 h in series [3] came to 5.4 mg/kg. In addition, the Activity result in series [4] and in series [5] was “Toxic” in each case.

The values above are taken from ChEMBL document CHEMBL6078630, “Design, synthesis, and bioactivity investigation of novel cyclic lipopeptide antibiotics targeting top-priority multidrug-resistant gram-negative bacteria” (Eur J Med Chem, 2024).
